Experimental data reported in US8952024B2, “Herbicidal pyrimidone derivatives” (E I du Pont de Nemours and Company, priority 2009, dated 2015).

How the values were obtained:
Type in all cases: in vivo
[1] = system: giant foxtail (Setaria faberii); assay: Test A pre-/postemergence plant response
Outline: (§1)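 Pre: directed soil spray on seeded loam/sand blend. Post: same formulation (non-phytotoxic solvent + surfactant) on 2–10 cm plants, 1–2 leaf stage. Greenhouse ~10 d; visual injury score 0–100 vs untreated.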

[2] = system: large crabgrass (Digitaria sanguinalis); assay: Test A pre-/postemergence plant response
Outline: as §1

[3] = system: wheat (Triticum aestivum); assay: Test A pre-/postemergence plant response
Outline: as §1

[4] = system: corn (Zea mays); assay: Test A pre-/postemergence plant response
Outline: as §1

[5] = system: velvetleaf (Abutilon theophrasti); assay: Test A pre-/postemergence plant response
Outline: as §1

[6] = system: barnyardgrass (Echinochloa crus-galli); assay: Test A pre-/postemergence plant response
Outline: as §1

[7] = system: morningglory (Ipomoea spp.); assay: Test A pre-/postemergence plant response
Outline: as §1

[8] = system: pigweed (Amaranthus retroflexus); assay: Test A pre-/postemergence plant response
Outline: as §1

[9] = system: giant foxtail (Setaria faberii); assay: Test B pre-/postemergence plant response; details: for Foxtail, Giant plant response rating (0 to 100 scale): 0 is no effect
Outline: (§2)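 Plants treated either at seeding (loam/sand soil) or postemergence at 2 to 18 cm height, using a surfactant-containing non-phytotoxic solvent formulation. Evaluation was visual after 13 to 15 days, 0 to 100 scale relative to controls.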

[10] = system: cocklebur (Xanthium strumarium); assay: Test B pre-/postemergence plant response; details: for Cocklebur plant response rating (0 to 100 scale): 0 is no effect
Outline: as §2

[11] = system: green foxtail (Setaria viridis); assay: Test B pre-/postemergence plant response; details: for Foxtail, Green plant response rating (0 to 100 scale): 0 is no effect
Outline: as §2

[12] = Postemergence, 125 g ai/ha, visual injury, 0 to 100 scale (0 no effect, 100 complete control), approx. ten days
[13] = Postemergence, 500 g ai/ha, 0 to 100 scale, 0 = no effect, 100 = complete control, approx. ten days
[14] = Preemergence, 125 g ai/ha, 0 to 100 scale, 0 = no effect, 100 = complete control
[15] = Preemergence, 500 g ai/ha, visual injury, 0 to 100 scale (0 no effect, 100 complete control), approx. ten days
[16] = 31 g ai/ha, postemergence, scale 0 to 100, 0 is no effect, 100 is complete control
[17] = 250 g ai/ha, Preemergence, 0 to 100 scale
[18] = Postemergence, 62 g ai/ha, scale 0 (no effect) to 100 (complete control), 13 to 15 days
[19] = Postemergence, 125 g ai/ha, visual rating after 13 to 15 days, scale 0 (no effect) to 100 (complete control)
[20] = Postemergence, 250 g ai/ha, scale 0 to 100 (0 no effect, 100 complete control)
[21] = Preemergence, 31 g ai/ha, scale 0 to 100 (0 no effect, 100 complete control)
[22] = Preemergence, 62 g ai/ha, scale 0 to 100, 0 no effect, 100 complete control
[23] = Preemergence, 125 g ai/ha, scale 0 to 100, 0 no effect, 100 complete control
[24] = Postemergence, 125 g ai/ha, 0 to 100 scale where 0 is no effect and 100 is complete control
[25] = 62 g ai/ha, postemergence, 100 is complete control, 13 to 15 days
[26] = Postemergence, 125 g ai/ha, scale 0 to 100 (0 no effect, 100 complete control)

Cc1ccc(Cl)cc1-n1c(-c2ccccc2)ncc(C(=O)C2=C(O)CCCC2=O)c1=O [Compound 52]
Foxtail, Giant plant response rating [1, 12]: 90
Plant response rating, Foxtail, Giant [1, 13]: 100
Plant response rating, Foxtail, Giant [1, 14]: 80
Plant response rating, Foxtail, Giant [1, 15]: 100
Crabgrass, Large plant response rating [2, 12]: 90
Plant response rating, Crabgrass, Large [2, 13]: 100
Plant response rating, Crabgrass, Large [2, 14]: 90
Plant response rating, Crabgrass, Large [2, 15]: 100
Wheat plant response rating [3, 12]: 0
Plant response rating, Wheat [3, 13]: 40
Plant response rating, Wheat [3, 14]: 0
Plant response rating, Wheat [3, 15]: 0
Corn plant response rating [4, 12]: 0
Plant response rating, Corn [4, 13]: 70
Plant response rating, Corn [4, 14]: 0
Plant response rating, Corn [4, 15]: 10
Velvetleaf plant response rating [5, 12]: 100
Plant response rating, Velvetleaf [5, 13]: 100
Plant response rating, Velvetleaf [5, 14]: 100
Plant response rating, Velvetleaf [5, 15]: 100
Barnyardgrass plant response rating [6, 12]: 90
Plant response rating, Barnyardgrass [6, 13]: 90
Plant response rating, Barnyardgrass [6, 14]: 40
Plant response rating, Barnyardgrass [6, 15]: 100
Morningglory plant response rating [7, 12]: 100
Plant response rating, Morningglory [7, 13]: 100
Plant response rating, Morningglory [7, 14]: 30
Plant response rating, Morningglory [7, 15]: 90
Pigweed plant response rating [8, 12]: 90
Plant response rating, Pigweed [8, 13]: 100
Plant response rating, Pigweed [8, 14]: 100
Plant response rating, Pigweed [8, 15]: 100
Plant response rating, Foxtail, Giant [9, 16]: 80
Plant response rating, Foxtail, Giant [9, 17]: 75
Plant response rating, Foxtail, Giant [9, 18]: 80
Plant response rating, Foxtail, Giant [9, 19]: 90
Plant response rating, Foxtail, Giant [9, 20]: 90
Plant response rating, Foxtail, Giant [9, 21]: 0
Plant response rating, Foxtail, Giant [9, 22]: 15
Plant response rating, Foxtail, Giant [9, 23]: 25
Plant response rating, Cocklebur [10, 16]: 75
Plant response rating, Cocklebur [10, 17]: 75
Plant response rating, Cocklebur [10, 18]: 85
Plant response rating, Cocklebur [10, 19]: 85
Plant response rating, Cocklebur [10, 20]: 85
Plant response rating, Cocklebur [10, 21]: 0
Plant response rating, Cocklebur [10, 22]: 0
Plant response rating, Cocklebur [10, 23]: 10
Plant response rating, Foxtail, Green [11, 16]: 95
Plant response rating, Foxtail, Green [11, 17]: 100
Plant response rating, Foxtail, Green [11, 18]: 98
Plant response rating, Foxtail, Green [11, 19]: 98
Plant response rating, Foxtail, Green [11, 20]: 100
Plant response rating, Foxtail, Green [11, 21]: 0
Plant response rating, Foxtail, Green [11, 22]: 30
Plant response rating, Foxtail, Green [11, 23]: 45

COCCn1c(-c2ccco2)ncc(C(=O)C2=C(O)CCCC2=O)c1=O [Compound 111]
Plant response rating, Foxtail, Giant [1, 24]: 60
Plant response rating, Foxtail, Giant [1, 13]: 90
Plant response rating, Foxtail, Giant [1, 15]: 70
Plant response rating, Crabgrass, Large [2, 24]: 90
Plant response rating, Crabgrass, Large [2, 13]: 90
Plant response rating, Crabgrass, Large [2, 14]: 90
Plant response rating, Crabgrass, Large [2, 15]: 100
Plant response rating, Wheat [3, 24]: 0
Plant response rating, Wheat [3, 13]: 0
Plant response rating, Wheat [3, 14]: 0
Plant response rating, Wheat [3, 15]: 0
Plant response rating, Corn [4, 24]: 0
Plant response rating, Corn [4, 13]: 30
Plant response rating, Corn [4, 14]: 0
Plant response rating, Corn [4, 15]: 0
Plant response rating, Velvetleaf [5, 24]: 100
Plant response rating, Velvetleaf [5, 13]: 100
Plant response rating, Velvetleaf [5, 14]: 90
Plant response rating, Velvetleaf [5, 15]: 100
Plant response rating, Barnyardgrass [6, 24]: 90
Plant response rating, Barnyardgrass [6, 13]: 90
Plant response rating, Barnyardgrass [6, 14]: 30
Plant response rating, Barnyardgrass [6, 15]: 90
Plant response rating, Morningglory [7, 24]: 100
Plant response rating, Morningglory [7, 13]: 100
Plant response rating, Morningglory [7, 14]: 50
Plant response rating, Morningglory [7, 15]: 80
Plant response rating, Pigweed [8, 24]: 100
Plant response rating, Pigweed [8, 13]: 100
Plant response rating, Pigweed [8, 14]: 100
Plant response rating, Pigweed [8, 15]: 100
Plant response rating, Foxtail, Giant [9, 16]: 60
Foxtail, Giant plant response rating (0 to 100 scale) [9, 25]: 65
Plant response rating, Foxtail, Giant [9, 26]: 65
Plant response rating, Foxtail, Giant [9, 20]: 70
Plant response rating, Cocklebur [10, 16]: 98
Cocklebur plant response rating (0 to 100 scale) [10, 25]: 98
Plant response rating, Cocklebur [10, 26]: 100
Plant response rating, Cocklebur [10, 20]: 100
Plant response rating, Foxtail, Green [11, 16]: 40
Foxtail, Green plant response rating (0 to 100 scale) [11, 25]: 60
Plant response rating, Foxtail, Green [11, 26]: 65
Plant response rating, Foxtail, Green [11, 20]: 70

O=C1CCCC(O)=C1C(=O)c1cnc(C2CC2)n(-c2ccccc2)c1=O [Compound 87]
Plant response rating, Foxtail, Giant [1, 24]: 70
Plant response rating, Foxtail, Giant [1, 13]: 90
Plant response rating, Foxtail, Giant [1, 15]: 80
Plant response rating, Crabgrass, Large [2, 24]: 90
Plant response rating, Crabgrass, Large [2, 13]: 90
Plant response rating, Crabgrass, Large [2, 15]: 100
Plant response rating, Wheat [3, 24]: 30
Plant response rating, Wheat [3, 13]: 60
Plant response rating, Wheat [3, 14]: 10
Plant response rating, Wheat [3, 15]: 40
Plant response rating, Corn [4, 24]: 10
Plant response rating, Corn [4, 13]: 50
Plant response rating, Corn [4, 14]: 0
Plant response rating, Corn [4, 15]: 0
Plant response rating, Velvetleaf [5, 24]: 100
Plant response rating, Velvetleaf [5, 13]: 100
Plant response rating, Velvetleaf [5, 14]: 100
Plant response rating, Velvetleaf [5, 15]: 100
Plant response rating, Barnyardgrass [6, 24]: 80
Plant response rating, Barnyardgrass [6, 13]: 90
Plant response rating, Barnyardgrass [6, 14]: 20
Plant response rating, Barnyardgrass [6, 15]: 90
Plant response rating, Morningglory [7, 24]: 90
Plant response rating, Morningglory [7, 13]: 100
Plant response rating, Morningglory [7, 14]: 50
Plant response rating, Morningglory [7, 15]: 80
Plant response rating, Pigweed [8, 24]: 100
Plant response rating, Pigweed [8, 13]: 100
Plant response rating, Foxtail, Giant [9, 16]: 75
Foxtail, Giant plant response rating (0 to 100 scale) [9, 25]: 80
Plant response rating, Foxtail, Giant [9, 20]: 95
Plant response rating, Cocklebur [10, 16]: 98
Cocklebur plant response rating (0 to 100 scale) [10, 25]: 100
Plant response rating, Cocklebur [10, 19]: 100
Plant response rating, Cocklebur [10, 20]: 100
Plant response rating, Foxtail, Green [11, 16]: 75
Foxtail, Green plant response rating (0 to 100 scale) [11, 25]: 80
Plant response rating, Foxtail, Green [11, 20]: 95
